The target in test [1] is T1, α2β3γ2 GABAAR co-expressed with human UT (Homo sapiens, UniProt Q9UKP6).
T1 construct: expressed in transfected cells; host or cells: CHO-K1 stably expressing human UT (pIRES-neo2-UT), transiently nucleofected with GABAAR subunit cDNAs
T1 sequence (Q9UKP6 1-389): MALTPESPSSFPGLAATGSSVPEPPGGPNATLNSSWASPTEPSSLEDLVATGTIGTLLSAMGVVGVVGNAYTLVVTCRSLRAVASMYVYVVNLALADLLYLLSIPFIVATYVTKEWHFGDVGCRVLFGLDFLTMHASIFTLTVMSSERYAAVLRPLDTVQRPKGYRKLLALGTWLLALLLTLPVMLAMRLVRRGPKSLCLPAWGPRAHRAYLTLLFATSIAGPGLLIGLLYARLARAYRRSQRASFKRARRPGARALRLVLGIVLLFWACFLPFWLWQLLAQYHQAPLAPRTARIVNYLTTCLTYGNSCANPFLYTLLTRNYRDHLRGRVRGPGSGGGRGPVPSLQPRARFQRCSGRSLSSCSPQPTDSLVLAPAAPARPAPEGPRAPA
The experiment in a line: Patch-clamp of Iso-evoked current in CHO-UT co-expressing α2β3γ2 GABAAR (CHO-UT-GABAAR). Format: cell-based. The procedure:
CHO-K1 cell lines were obtained from American Type Culture Collection (Manassas, VA, USA). The human UT stable CHO (CHO-UT) was generously provided by Dr Christophe Dubessy (Inserm, Rouen University, France) et generated by CHO electroporation with 20 µg pIRES-neo2-UT DNA and 500 µg sterile sonicated salmon sperm DNA using the EasyJect One electroporation system (Equibio, Angleur, Belgium), followed by repetitive rounds of limiting dilution of cells in G-418 (400 µg/ml) for selection. Normal or stable CHO was grown in Ham-F12 medium supplemented with 10% FBS, 1% antibiotic-antimicotic solution and 2 mM glutamine, at 37°C in a humidified incubator with an atmosphere of 5% CO2. The stable CHO-UT medium was supplemented with the antibiotic G-418 (40 µg/ml).
For transfection, cells were trypsinized (0.05%), triturated in HamF-12 containing 10% FBS media, pelleted by centrifugation, resuspended in 100 µl solution V for nucleofection by an Amaxa Nucleofector Device (Köln, Germany; set to program U-016). Experiments were performed on normal CHO or on the stable CHO-UT cells and transiently transfected with combinations of cDNA encoding α2β3γ2, α2β3γ1, α2β1γ2, α2β3γ1, α2β3, β3γ2 (4 µg of cDNA total/transfection) GABAAR subunits. Cells were seeded on 14-mm poly-L-lysine-coated glass bottom insert dishes at 5×10^5 cells in a volume of 0.5 ml/dish. Cells were incubated overnight at 37°C in a humidified incubator (5% CO2) during 16 h before electrophysiological or immunocytochemical experiments.
GABAA receptor cDNA clones; α2, β1, β3, γ1 and γ2L engineered into the expression vector pCDM8 ([…], β1, γ2) or pcDNA/Amp (β3, γ1), were generously provided by Dr Wingrove (Merk Sharp and Dohme, Harlow, UK). To obtain β3 ^HA or γ2 ^HA epitope-tagged subunits, β3 or γ2 cDNA was amplified and the PCR product was subcloned using the SalI and NotI sites of pCMV-HA (Table S2) after digestion by the same restriction enzymes.
The conventional whole-cell configuration of the patch-clamp technique was used to study the GABA-gated currents in astrocytes and granule neurons, UT stably transfected CHO, CHO-UT, and CHO transiently transfected with diverse variants of UT and GABAAR subunits. After 24-h transfection, cell culture coverslips were placed in a small chamber (1.5 ml) on a stage of a right microscope DMLFSA (Leica, Heidelberg, Germany) and superfused continuously with the following bath solution containing (in mM): NaCl, 150; KCl, 2.5; HEPES, 5; CaCl2, 2; MgCl2, 1; glucose, 10 (pH 7.4 adjusted with NaOH). The patch pipettes were fabricated from 1.5 mm (outer diameter) soft glass tubes on a two-step vertical pipette puller (List-Medical, L/M-3P-A, Darmstadt, Germany). […] ATP and GTP were added to the internal solution used to fill electrode just before recording. All recordings were obtained at RT with cells voltage-clamped at −70 mV. The GABAA receptor agonist isoguvacine was prepared in the extracellular solution and was applied to cells by pneumatic pressure ejection. To prevent desenzitization, isoguvacine was more often ejected during 5 s at 2-min intervals. ATP, GTP, or guanosine 5′-O-(2-thiodiphosphate) (GDPβS) were administered through the patch pipette solution. We investigated the effect of competitive inhibition of GDP-GTP exchange by including GDPβS in the pipette solution (in addition to the normal amount of GTP). For GDPβS and the KIC, immediately following patch rupture, GABA current recordings were performed and the experiment was commenced after an equilibration period of 15 min.
All peptide ligands, inhibitors or allosteric modulators of the GABAA receptor function were applied via gravity through a plastic tubing positioned in the vicinity of the cell body in order to maintain a sustained perfusion. In these conditions, drugs could reach the cell of interest after 30 s of perfusion. Isoguvacine was applied focally by pneumatic pressure ejection from a micropipette.

Test [2] has as its system α2β1 GABAAR co-expressed with human UT. The experiment in a line: Patch-clamp of Iso-evoked current in CHO-UT expressing α2β1 GABAAR. Type of test: cell-based. The conditions noted are these: hUII 10^−13 to 10^−7 M; Iso 10^−4 M, 2 s; −60 mV. (In general: The patch-clamp technique gives a direct electrical read-out from membranes.)

For the compound `O=C(O)C1=CCNCC1` [Iso, isoguvacine], the “Apparent desensitization of Iso-evoked current” value in test [1] (Iso 10^−4 M continuous ejection, control (Iso alone) or with hUII 10^−8 M) is given as 59%. Moreover, the “Chloride reversal potential (EqCl^−)” value in test [1] (I–V relationship, Iso 10^−4 M without (control) or with hUII 10^−8 M) is on record as 4.84 mV. The “Mean time constant of recovery from desensitization (50% receptors)” value in test [1] (after long Iso exposure (30 s), control (Iso alone) or with hUII) amounted to 16.2 s.

On to “ETPDCFWKYCV (disulfide) [hUII, human urotensin II, synthesized by solid phase methodology]”, for which, in test [2], the “Inhibitory effect on Iso-evoked current, α2β1” value is on record as “totally ineffective”.
